Laboratory results taken from patent US6660742B2, “Compositions and methods of the use thereof achiral analogues of CC-1065 and the duocarmycins” (priority 2000, dated 2003).

How the values were obtained:
[1] = favoring the natural (+)-isomer; cited from earlier work
[2] = test system: panel of 60 human cancer cell lines; experiment: NCI in-vitro cytotoxicity screen, whole panel; format: cell-based
[3] = mice; therapeutic doses; cited from earlier work
L1210 leukemia = details: carzelesin 400 μg/kg, adozelesin 100 μg/kg; cited from earlier work
melanoma = details: phase I clinical trial; cited from earlier work

Procedure for BT-549: (§1) The compounds of this invention were also tested against the panel of 60 human cancer cell lines at the National Cancer Institute, Bethesda, Md. (44). The cytrotoxicity studies were conducted using a 48 hour exposure, and measuring the optical density of sulforhodamide B-derived color.
Procedure for CCRF-CEM: (§2) The compounds of this invention were also tested against the panel of 60 human cancer cell lines at the National Cancer Institute, Bethesda, Md. […] The cytrotoxicity studies were conducted using a 48 hour exposure, and measuring the optical density of sulforhodamide B-derived color.
Procedure for HS 578T: as §1
Procedure for HT29: as §2
Procedure for K-562: as §2
Procedure for LOX IMVI: as §1
Procedure for MOLT-4: as §2
Procedure for NCI-H23: as §2
Procedure for OVCAR-8: as §1
Procedure for SF-268: as §1
Procedure for SR: as §2
Procedure for TK-10: as §2

## CPI-In-In
[1]
  difference in cytotoxicity between enantiomers: about 250 fold

## COc1cc2cc(C(=O)Nc3cc(O)ccc3CCCl)[nH]c2c(OC)c1OC [Compound 3, 4-(2-Chloroethyl)-3-(5,6,7-trimethoxyindole-2-carboxamino)phenol]
TK-10
  CC50: 23.5 µM
LOX IMVI
  CC50: > 100 µM
HS 578T
  CC50: > 100 µM
NCI-H322M
  CC50: > 100 µM
  GI50: 2.81 µM
SR
  CC50: > 100 µM
MOLT-4
  CC50: > 100 µM
NCI-H23
  CC50: > 100 µM
SF-268
  CC50: > 100 µM
[2]; 48 hour exposure
  range of activity: micromolar range
[2]; leukemia cells
  activity against leukemia cells: none of these compounds showed much activity
[2]; melanoma cells
  activity against melanoma cells: active
[2]; solid tumors cells
  activity against solid tumors cells: strong activity
K-562
  CC50: > 100 µM
BT-549
  CC50: > 100 µM
CCRF-CEM
  CC50: > 100 µM
HT29
  CC50: > 100 µM
OVCAR-8
  CC50: > 100 µM

## Cc1c[nH]c2c1[C@@]13C[C@@H]1CN(C(=O)c1cc4cc(NC(=O)c5cc6ccccc6o5)ccc4[nH]1)C3=CC2=O [adozelesin]
[3]
  delayed lethality / delayed toxicity: devoid of the delayed toxicity problem
L1210 leukemia
  ILS: 90±11%
  survival: 0/6
melanoma
  clinical response: partial response
